System: human neutrophils
Experiment: Chemotaxis of neutrophils suspended inside G041 substrate in a gradient
Format: cell-based
Conditions: 45-minute video
Source text: For materials in the Examples 2-4, substrates were punched or cut into shapes, sterilized and used to setup gradients of one or more ingredients. In some tests, gradients were further applied to cells in culture. In other tests, suspension of uncultured cells was suspended inside the substrate to which a gradient was applied.
As shown in Example 9 (Brain Culture #5) cells survived without free (substrate-unbound) medium, if overlapped by another substrate with the embedded medium. Accordingly, molecule diffusion studies, and this included gradients formed in one or more substrates, were maintained for longer periods of time without significant gradient “dilution” (by otherwise present surrounding pool of medium) when applied to cells in culture (or to uncultured cells suspended inside the substrate) by way of a substrate overlap method. In short term studies in a humidified incubator, neutrophils were exposed to a gradient inside the substrate, and the substrate was not overlapped by another substrate, yet a significant fraction of cells taxed in a suitable gradient.

## Interleukin 8: cytokine applied as a gradient to neutrophils
  Chemotaxis in applied gradient: Chemotaxis of human neutrophils

Source: US9334473B2, “Three dimensional cell culture compositions and methods of use” (priority 2012, dated 2016)
